Reference: ChEMBL document CHEMBL4028817, “Indole-TEMPO conjugates alleviate ischemia-reperfusion injury via attenuation of oxidative stress and preservation of mitochondrial function” (Bioorg Med Chem, 2017)
Active and inactive are the calls of the source. No cut-off for these calls is given here.

Legend:
Mus musculus [1] = assay: Toxicity in mouse assessed as tail bleeding time at 0.50 mmol/kg, po administered 30 mins prior to tail transection measured every 30 secs (reference value: 120.5 +/- 7.9 sec); assay type: organism-based; settings: in vivo
Mus musculus [2] = assay: Anti-inflammatory activity in ICR mouse assessed as inhibition of xylene induced ear edema at 0.10 mmol/kg pretreated orally for 30 mins followed by xylene challenge measured after 2 hrs relative to control; assay type: functional; settings: po
Mus musculus [3] = assay: Anti-inflammatory activity in xylene induced ICR mouse ear edema model assessed as edema weight at 0.10 mmol/kg, po pretreated 30 mins followed by xylene challenge measured after 2 hrs (reference value: 4.07 +/- 0.51 mg); assay type: functional
Mus musculus [4] = assay: Toxicity in mouse assessed as tail bleeding time at 0.50 mmol/kg, po administered 60 mins prior to tail transection measured every 30 secs (reference value: 120.4 +/- 7.9 sec); assay type: organism-based; settings: in vivo
Mus musculus [5] = assay: Toxicity in mouse assessed as tail bleeding time at 0.50 mmol/kg, po administered 45 mins prior to tail transection measured every 30 secs (reference value: 119.8 +/- 8.4 sec); assay type: organism-based; settings: in vivo
Mus musculus [6] = assay: Toxicity in mouse assessed as tail bleeding time at 0.50 mmol/kg, po administered 90 mins prior to tail transection measured every 30 secs (reference value: 119.3 +/- 7.7 sec); assay type: organism-based; settings: in vivo
HUVEC [7] = assay: Protection against simulated ischemia/reperfusion injury-induced cell death in HUVEC assessed as increase in cell viability at 30 ug/ml treated for 12 hrs under normoxic condition prior to simulated ischemia for 2 hrs followed by compound washout measured 3 hrs post reperfusion; assay type: functional, cell-based; settings: Homo sapiens
Mus musculus [8] = assay: Anti-inflammatory activity in ICR mouse assessed as inhibition of xylene induced ear edema pretreated orally for 30 mins followed by xylene challenge measured after 2 hrs; assay type: functional
Mus musculus [9] = assay: Anti-inflammatory activity in ICR mouse assessed as inhibition of xylene induced ear edema at 0.02 mmol/kg, po pretreated for 30 mins followed by xylene challenge measured after 2 hrs; assay type: functional, organism-based
HUVEC [10] = assay: Protection against simulated ischemia and reperfusion injury induced mitochondrial oxidative damage in HUVEC assessed as reduction in cytochrome c release at 30 ug/ml treated for 12 hrs under normoxic condition prior to simulated ischemia for 2 hrs followed by compound washout measured 3 hrs post reperfusion by MitoProbe based immuno-fluorescence assay (reference value: 71.2 +/- 4.5%); assay type: functional, Homo sapiens; design: scale not given: the % may be the effect or the level left
Rattus norvegicus [11] = assay: (§1) Protection against ischemia/reperfusion-induced Wistar rat intestinal injury model assessed as effect on TNFalpha levels at 30 mg/kg administered as bolus dose pretreated for 5 mins followed by 12 hrs reperfusion and subsequent compound addition at 10 mg/kg administered at 1 hr interval during reperfusion period by ELISA (reference value: 62.9 +/- 8.7 pg/ml); assay type: functional
HUVEC [12] = assay: (§2) Protection against simulated ischemia/reperfusion injury induced mitochondrial oxidative damage in HUVEC assessed as increase in tubular mitochondrial cells at 30 ug/ml pretreated for 12 hrs followed by compound washout and subsequent ischemia simulation for 2 hrs in presence of compound prior to 3 hrs reperfusion under drug free medium by MitoProbe based confocal microscopic analysis; assay type: functional, cell-based; settings: Homo sapiens
HUVEC [13] = assay: as §2, with “decrease” for “increase”, “in” for “in tubular”, “reactive oxygen species level” for “cells”; assay type: functional, cell-based; settings: Homo sapiens
Rattus norvegicus [14] = assay: (§3) Protection against ischemia/reperfusion induced Wistar rat intestinal injury model assessed as reduction in denudation of villous tips at 30 mg/kg administered as bolus dose pretreated for 5 mins followed by 12 hrs reperfusion and subsequent compound treatment at 10 mg/kg administered at 1 hr interval during reperfusion period by hematoxylin-eosin/trichrome/NADH-diaphorase staining based histopathological analysis; assay type: functional, organism-based
Rattus norvegicus [15] = assay: as §3, with “ischemia/reperfusion-induced” for “ischemia/reperfusion induced”, “well-preserved glandular architecture” for “reduction in denudation of villous tips”, “addition” for “treatment”; assay type: functional, organism-based
Rattus norvegicus [16] = assay: as §1, with “reduction in lipid peroxidation by measuring lipid peroxide” for “effect on TNFalpha”, “period measured at 1.5 to 12 hrs post reperfusion” for “period”, “spectrophotometric method” for “ELISA (reference value: 62.9 +/- 8.7 pg/ml)”; assay type: functional, organism-based

SMILES | Time (Mus musculus [1]) | inhibition in vivo at 100 µmol/kg (Mus musculus [2]) | Activity (Mus musculus [3]) | Time (Mus musculus [4]) | Time (Mus musculus [5]) | Time (Mus musculus [6]) | Activity (HUVEC [7]) | inhibition (Mus musculus [8]) | inhibition (Mus musculus [9]) | Activity (HUVEC [10]) | Activity (Rattus norvegicus [11]) | Activity (HUVEC [12]) | Activity (HUVEC [13]) | Activity (Rattus norvegicus [14]) | Activity (Rattus norvegicus [15]) | Activity (Rattus norvegicus [16])
CC1(C)CC(n2cc(CNC(=O)[C@H]3CCCN3C(=O)[C@@H]3Cc4c([nH]c5ccccc45)CN3C(=O)[C@@H]3Cc4c([nH]c5ccccc45)CN3)nn2)CC(C)(C)N1[O] | 119.9 s | 43.2% | 2.31 mg | 121.4 s | 119.5 s | 119.7 s |  |  |  |  |  |  |  |  |  | 
CC1(C)CC(n2cc(CNC(=O)[C@@H](CC(N)=O)NC(=O)[C@@H]3Cc4c([nH]c5ccccc45)CN3C(=O)[C@@H]3Cc4c([nH]c5ccccc45)CN3)nn2)CC(C)(C)N1[O] | 119.7 s | 56.3% | 1.78 mg | 119.5 s | 118.4 s | 119.2 s | Active | Dose-dependent effect |  |  |  |  |  |  |  | 
CC1(C)CC(n2cc(CNC(=O)[C@@H](CCCCN)NC(=O)[C@@H]3Cc4c([nH]c5ccccc45)CN3C(=O)[C@@H]3Cc4c([nH]c5ccccc45)CN3)nn2)CC(C)(C)N1[O] | 121.4 s | 57% | 1.75 mg | 120.5 s | 119.8 s | 118.5 s | Active | Dose-dependent effect |  |  |  |  |  |  |  | 
CC1(C)CC(n2cc(CNC(=O)[C@@H](CO)NC(=O)[C@@H]3Cc4c([nH]c5ccccc45)CN3C(=O)[C@@H]3Cc4c([nH]c5ccccc45)CN3)nn2)CC(C)(C)N1[O] | 121.1 s | 40.5% | 2.42 mg | 122.5 s | 119.7 s | 118.6 s |  |  |  |  |  |  |  |  |  | 
CC1(C)CC(n2cc(CNC(=O)C[C@@H](NC(=O)[C@@H]3Cc4c([nH]c5ccccc45)CN3C(=O)[C@@H]3Cc4c([nH]c5ccccc45)CN3)C(=O)NCc3cn(C4CC(C)(C)N([O])C(C)(C)C4)nn3)nn2)CC(C)(C)N1[O] | 116.3 s | 76.7% | 0.95 mg | 119.3 s | 118.2 s | 120.5 s | Active | Dose-dependent effect | Active | 29.8% | 21.7 pg/mL | Active | Active | Active | Active | Active
CC1(C)CC(n2cc(CNC(=O)CNC(=O)[C@@H]3Cc4c([nH]c5ccccc45)CN3C(=O)[C@@H]3Cc4c([nH]c5ccccc45)CN3)nn2)CC(C)(C)N1[O] | 117.7 s | 34.7% | 2.65 mg | 116.4 s | 114.5 s | 115.8 s |  |  |  |  |  |  |  |  |  | 
CC1(C)CC(n2cc(CNC(=O)[C@@H](Cc3c[nH]cn3)NC(=O)[C@@H]3Cc4c([nH]c5ccccc45)CN3C(=O)[C@@H]3Cc4c([nH]c5ccccc45)CN3)nn2)CC(C)(C)N1[O] | 119 s | 48.6% | 2.09 mg | 119.5 s | 120.5 s | 118 s |  |  |  |  |  |  |  |  |  | 
CC[C@@H](C)[C@@H](NC(=O)[C@@H]1Cc2c([nH]c3ccccc23)CN1C(=O)[C@@H]1Cc2c([nH]c3ccccc23)CN1)C(=O)NCc1cn(C2CC(C)(C)N([O])C(C)(C)C2)nn1 | 119.7 s | 44.7% | 2.25 mg | 116.1 s | 117.5 s | 121.7 s |  |  |  |  |  |  |  |  |  | 
CC1(C)CC(n2cc(CNC(=O)[C@@H](Cc3c[nH]c4ccccc34)NC(=O)[C@@H]3Cc4c([nH]c5ccccc45)CN3C(=O)[C@@H]3Cc4c([nH]c5ccccc45)CN3)nn2)CC(C)(C)N1[O] | 119.4 s | 50.4% | 2.02 mg | 121.8 s | 120.3 s | 117.3 s |  |  |  |  |  |  |  |  |  | 
CC1(C)CC(n2cc(CNC(=O)[C@@H](CCC(N)=O)NC(=O)[C@@H]3Cc4c([nH]c5ccccc45)CN3C(=O)[C@@H]3Cc4c([nH]c5ccccc45)CN3)nn2)CC(C)(C)N1[O] | 117.4 s | 47.7% | 2.13 mg | 120.6 s | 119.6 s | 119.3 s |  |  |  |  |  |  |  |  |  | 
CC1(C)CC(n2cc(CNC(=O)[C@@H](Cc3ccc(O)cc3)NC(=O)[C@@H]3Cc4c([nH]c5ccccc45)CN3C(=O)[C@@H]3Cc4c([nH]c5ccccc45)CN3)nn2)CC(C)(C)N1[O] | 117.2 s | 60% | 1.63 mg | 117.5 s | 118 s | 118.6 s | Active | Dose-dependent effect |  |  |  |  |  |  |  | 
CC(C)C[C@@H](NC(=O)[C@@H]1Cc2c([nH]c3ccccc23)CN1C(=O)[C@@H]1Cc2c([nH]c3ccccc23)CN1)C(=O)NCc1cn(C2CC(C)(C)N([O])C(C)(C)C2)nn1 | 121 s | 47% | 2.16 mg | 119.8 s | 120.7 s | 119.1 s |  |  |  |  |  |  |  |  |  | 
C[C@@H](O)[C@@H](NC(=O)[C@@H]1Cc2c([nH]c3ccccc23)CN1C(=O)[C@@H]1Cc2c([nH]c3ccccc23)CN1)C(=O)NCc1cn(C2CC(C)(C)N([O])C(C)(C)C2)nn1 | 116.9 s | 47.2% | 2.15 mg | 118.5 s | 117.3 s | 117.4 s |  |  |  |  |  |  |  |  |  | 
CSCC[C@@H](NC(=O)[C@@H]1Cc2c([nH]c3ccccc23)CN1C(=O)[C@@H]1Cc2c([nH]c3ccccc23)CN1)C(=O)NCc1cn(C2CC(C)(C)N([O])C(C)(C)C2)nn1 | 119.3 s | 43.5% | 2.3 mg | 119.6 s | 118.4 s | 117.9 s |  |  |  |  |  |  |  |  |  | 
CC1(C)CC(O)CC(C)(C)N1[O] [TEMPOL] |  |  |  |  |  |  |  |  |  |  | 25.2 pg/mL |  |  |  |  | Active
CC1(C)CC(n2cc(CNC(=O)[C@@H](Cc3ccccc3)NC(=O)[C@@H]3Cc4c([nH]c5ccccc45)CN3C(=O)[C@@H]3Cc4c([nH]c5ccccc45)CN3)nn2)CC(C)(C)N1[O] | 119.4 s | 45.9% | 2.2 mg | 117.6 s | 119.1 s | 119 s |  |  |  |  |  |  |  |  |  | 
CC1(C)CC(n2cc(CNC(=O)[C@@H](CCCNC(=N)N([N+](=O)[O-])[N+](=O)[O-])NC(=O)[C@@H]3Cc4c([nH]c5ccccc45)CN3C(=O)[C@@H]3Cc4c([nH]c5ccccc45)CN3)nn2)CC(C)(C)N1[O] | 121.8 s | 63.1% | 1.5 mg | 119.8 s | 120.2 s | 119.7 s | Active | Dose-dependent effect |  |  |  |  |  |  |  | 
CC(C)[C@@H](NC(=O)[C@@H]1Cc2c([nH]c3ccccc23)CN1C(=O)[C@@H]1Cc2c([nH]c3ccccc23)CN1)C(=O)NCc1cn(C2CC(C)(C)N([O])C(C)(C)C2)nn1 | 116.4 s | 36.6% | 2.58 mg | 120.4 s | 119.3 s | 118.7 s |  |  |  |  |  |  |  |  |  | 
C[C@@H](NC(=O)[C@@H]1Cc2c([nH]c3ccccc23)CN1C(=O)[C@@H]1Cc2c([nH]c3ccccc23)CN1)C(=O)NCc1cn(C2CC(C)(C)N([O])C(C)(C)C2)nn1 | 119.6 s | 32.9% | 2.73 mg | 117.7 s | 115.3 s | 119.8 s |  |  |  |  |  |  |  |  |  | 
